Among the test systems are CCRF-CEM; NCI-H522; KM-20L2; SN12C; LXFL 529; MOLT-4; HL-60; LOX IMVI; HOP-62; TK-10; M19-MEL; CAKI-1; SK-MEL-5; MDA-N; T47D; DU-145; PC-3; KM12; OVCAR-3.
Holding throughout (test): growth of human tumour cells (NCI), 48 h

SMILES strings stand for the structures.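 Grown in 96-well plates, cells were treated for 48 hours with each compound at five concentrations. Insufficient inhibition: endpoint recorded as highest concentration tested. Here, GI50 denotes the concentration required for 50% inhibition of growth.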 Activity calls are given as the source filed them. Rule as the data show it: active = GI50 up to about 1.1 µM and inactive = higher. Positions of bridges follow the written chain, without caps; N, C: chain ends. Residues, ends and D or L forms follow the SMILES beside them.

As for `CC(=O)OC1(C#N)CC2OC1C1NC21` (configuration not stated), the GI50 in the assay with CCRF-CEM, with NCI-H522, in the assay with KM-20L2, with SN12C, with LXFL 529 and with MOLT-4 was > 100 µM (inactive) each time. Also, the GI50 in the assay on HL-60, in the assay with LOX IMVI, in the assay on HOP-62, with TK-10, in the assay on M19-MEL and in the assay on CAKI-1 was > 100 µM (inactive) each time. In addition, the GI50 in the assay on SK-MEL-5 is > 100 µM (inactive).
In the case of `O=C(c1ccccc1)N(C(=O)c1ccccc1)c1nc(SCc2ccccc2)ns1`, the GI50 is 26.5 µM (inactive) in the assay with MDA-N; 25.6 µM (inactive) in the assay on CCRF-CEM; 20 µM (inactive) in the assay with NCI-H522; 25 µM (inactive) in the assay on T47D; 25.2 µM (inactive) in the assay on SN12C; 25.4 µM (inactive) with MOLT-4. Further, the GI50 was 21.8 µM (inactive) with HL-60; 30.9 µM (inactive) in the assay with DU-145; 28.2 µM (inactive) with PC-3; 34 µM (inactive) in the assay on KM12; 28.6 µM (inactive) in the assay with LOX IMVI; 32.9 µM (inactive) with HOP-62. Also, the GI50 was 22.3 µM (inactive) in the assay on OVCAR-3, 25.9 µM (inactive) with TK-10, 38.2 µM (inactive) with CAKI-1 and 16.2 µM (inactive) in the assay with SK-MEL-5.
Consider `O=C1c2ccccc2C(=O)c2c1ccc1nc3c(nc21)-c1c2ccccc2cc2cccc-3c12`, for which the GI50 with MDA-N is 32.6 µM (inactive); in the assay on CCRF-CEM, 5.33 µM (inactive); with NCI-H522, 27.2 µM (inactive); in the assay on T47D, 33.6 µM (inactive); in the assay on SN12C, 35.8 µM (inactive); in the assay with MOLT-4, 18.6 µM (inactive). Further, the GI50 in the assay on HL-60 was 10 µM (inactive); with DU-145 it was 29.2 µM (inactive); with PC-3, 41.9 µM (inactive); in the assay on KM12, 8.36 µM (inactive); with LOX IMVI, 19.9 µM (inactive); in the assay with HOP-62 it was 26.5 µM (inactive). Besides, the GI50 in the assay on OVCAR-3 was 43.8 µM (inactive); in the assay on TK-10, 52.4 µM (inactive); in the assay on CAKI-1 it was 23.4 µM (inactive); in the assay on SK-MEL-5 it was 46.7 µM (inactive).
For the compound `C[N+]12CCCCC1C(CN1C(=O)Cc3c4ccccc4c(c4ccccc34)CC1=O)CCC2` (configuration not stated), the GI50 in the assay with MDA-N, with CCRF-CEM, with NCI-H522, in the assay on T47D, in the assay on SN12C and with MOLT-4 was > 100 µM (inactive) each time. The GI50 in the assay with HL-60, with DU-145, in the assay on PC-3, in the assay with KM12, with LOX IMVI and with HOP-62 was > 100 µM (inactive) throughout. The GI50 with OVCAR-3, in the assay on TK-10, with CAKI-1 and in the assay with SK-MEL-5 was > 100 µM (inactive) in each case.
For `CCC/C(Cl)=N\OC(=O)Nc1ccc(Br)cc1`, the GI50 in the assay on MDA-N was 13.2 µM (inactive); with CCRF-CEM, 1.78 µM (inactive); in the assay with NCI-H522, 1.75 µM (inactive); with T47D, 7.24 µM (inactive); with SN12C, 14 µM (inactive); in the assay on MOLT-4, 2.55 µM (inactive). Also, the GI50 with HL-60 is 1.99 µM (inactive); in the assay on DU-145 it was 13.8 µM (inactive); with PC-3 it was 14.7 µM (inactive); in the assay on KM12 it was 10.8 µM (inactive); in the assay with LOX IMVI it was 3.89 µM (inactive); in the assay on HOP-62, 20.9 µM (inactive). Moreover, the GI50 with OVCAR-3 is 6.22 µM (inactive); in the assay with TK-10 it was 14.2 µM (inactive); in the assay with CAKI-1, 4.36 µM (inactive); in the assay on SK-MEL-5 it was 14.6 µM (inactive).
Take `Nc1nc(=O)c2c([nH]1)NCC(CCNc1ccc(C(=O)O)cc1)N2` (configuration not stated): the GI50 in the assay with MDA-N, in the assay with CCRF-CEM, with NCI-H522, in the assay on T47D, with SN12C and in the assay with MOLT-4 was > 100 µM (inactive) each time. Moreover, the GI50 with HL-60 was 78 µM (inactive); in the assay with DU-145, > 100 µM (inactive); in the assay on PC-3 it was > 100 µM (inactive); in the assay with KM12, > 100 µM (inactive); in the assay with LOX IMVI, > 100 µM (inactive); with HOP-62, > 100 µM (inactive). The GI50 in the assay with OVCAR-3, with TK-10, with CAKI-1 and in the assay with SK-MEL-5 was > 100 µM (inactive) in each case.
On to `CC(C)=CCc1c(O)cc2oc(-c3ccc(O)cc3O)cc(=O)c2c1O`, for which the GI50 is 25.2 µM (inactive) with MDA-N; 8.11 µM (inactive) in the assay with CCRF-CEM; 22.3 µM (inactive) in the assay with NCI-H522; 19 µM (inactive) with T47D; 28.8 µM (inactive) in the assay on SN12C; 1.95 µM (inactive) with MOLT-4. The GI50 with HL-60 is 20.1 µM (inactive); in the assay with DU-145, 29.3 µM (inactive); with PC-3 it was 34.7 µM (inactive); with KM12, 19.5 µM (inactive); in the assay with LOX IMVI, 9.53 µM (inactive); with HOP-62, 33.3 µM (inactive). Moreover, the GI50 in the assay with OVCAR-3 is 21.8 µM (inactive); with TK-10, 22 µM (inactive); in the assay on CAKI-1, 28.5 µM (inactive); with SK-MEL-5, 19.9 µM (inactive).
Regarding `C=CCC1(O)C(=O)OC2C(O)COC21O` (configuration not stated), the GI50 in the assay with MDA-N, in the assay on CCRF-CEM, with NCI-H522, with T47D, with SN12C and in the assay with MOLT-4 was > 100 µM (inactive) each time. For the same compound, the GI50 with HL-60, in the assay with DU-145, in the assay on PC-3, in the assay with KM12, with LOX IMVI and with HOP-62 was > 100 µM (inactive) each time. The GI50 with OVCAR-3, in the assay with TK-10, in the assay on CAKI-1 and with SK-MEL-5 was > 100 µM (inactive) in each case.
As for `COC[C@@H](/N=C/N1CCc2cc(OC)c(OC)cc2[C@@H]1C)C(C)(C)C`, the GI50 with CCRF-CEM, in the assay with NCI-H522, with KM-20L2, with SN12C, with LXFL 529 and in the assay on MOLT-4 was > 100 µM (inactive) each time. The GI50 with HL-60, in the assay on KM12, in the assay with HOP-62, in the assay with OVCAR-3, in the assay with TK-10 and in the assay on M19-MEL was > 100 µM (inactive) throughout. The GI50 with CAKI-1 and in the assay on SK-MEL-5 was > 100 µM (inactive) throughout.
Consider `CCC(C)C1NC(=O)C(CC(C)C)NC(=O)C(C(C)C)NC(=O)C2CSSCC(NC1=O)C(=O)N2` (configuration not stated) (cyclo(CCVLI); disulfide 1-2; configuration not given here), for which the GI50 was 0.184 µM (active) in the assay with MDA-N; 0.0228 µM (active) in the assay with CCRF-CEM; 0.142 µM (active) with NCI-H522; 0.0305 µM (active) in the assay with T47D; 0.192 µM (active) in the assay on SN12C; 0.0165 µM (active) with MOLT-4. The GI50 in the assay on HL-60 was 0.155 µM (active); in the assay with DU-145, 0.156 µM (active); with PC-3, 0.147 µM (active); in the assay on KM12, 0.0507 µM (active); in the assay on LOX IMVI, 0.0573 µM (active); in the assay with HOP-62, 0.186 µM (active). Also, the GI50 was 0.187 µM (active) in the assay with OVCAR-3, 0.687 µM (active) in the assay on TK-10, 1.74 µM (inactive) in the assay with CAKI-1 and 0.153 µM (active) in the assay on SK-MEL-5.
As to `Cc1cc(=O)[nH]c2cc(NC(=O)C(CCCNC(=N)N)NC(=O)OCc3ccccc3)ccc12` (configuration not stated), the GI50 with MDA-N, in the assay with CCRF-CEM, in the assay with NCI-H522, in the assay with T47D, in the assay on SN12C and in the assay on MOLT-4 was > 100 µM (inactive) throughout. The GI50 in the assay on HL-60, with DU-145, with PC-3, with KM12, in the assay with LOX IMVI and in the assay on HOP-62 was > 100 µM (inactive) throughout. For the same compound, the GI50 in the assay on OVCAR-3, in the assay on TK-10, in the assay on CAKI-1 and in the assay on SK-MEL-5 was > 100 µM (inactive) each time.
With `O=C1C(C(c2ccc([N+](=O)[O-])cc2)N2CCOCC2)=C(O)C(c2ccccc2)N1c1ccccc1` (configuration not stated), the GI50 in the assay on MDA-N, with CCRF-CEM, in the assay with NCI-H522, in the assay with T47D, with SN12C and in the assay on MOLT-4 was > 10 µM (inactive) throughout. The GI50 in the assay with HL-60, with DU-145, in the assay with PC-3, in the assay with KM12, with LOX IMVI and with HOP-62 was > 10 µM (inactive) in each case. The GI50 with OVCAR-3, in the assay with TK-10, in the assay with CAKI-1 and in the assay with SK-MEL-5 was > 10 µM (inactive) each time.

These data come from ChEMBL document CHEMBL1201862, “PubChem BioAssay data set” (2004).
